SMILES	melting point [°C]
Cc1onc(NS(=O)(=O)c2ccccc2-c2ccc(-c3ncccn3)cc2Cn2ccc(C(F)(F)F)n2)c1C	108 to 114
Cc1ccc2c3c(c(=O)oc2c1)CN(CCN1CC2CCCC(C2)C1)CC3	150 to 152
CCC(=CC(CNC(=O)c1nc[nH]c1C)=NO)C(C)[N+](=O)[O-] (stereo not drawn)	125 to 127
CSC(=C[N+](=O)[O-])NCCCCc1csc(N(CC(F)(F)F)C(=N)N)n1	140 to 141
Cc1ccc(-c2cn(-c3ccc4c(c3)c3ccccc3n4C)c(-c3ccc(C)s3)n2)s1	248 to 255
COC(=O)Cc1ccc(OS(=O)(=O)C(F)(F)F)c(NC(C)=O)c1	68.5 to 70
CCCOc1nc2ccsc2c(=O)n1CCC	42 to 45
CNC(=S)NN=C(CCCCl)c1cccnc1	100 to 102
CN1CCN(c2cccc3c2C[C@H](NC(=O)c2csc(-c4ccncc4)n2)CC3)CC1	187 to 188
Cc1cc(S(=O)(=O)N2c3ccccc3CC2C(=O)NCCOc2ccc(CC(=O)O)cc2)ccc1-c1cccc(C(F)(F)F)c1 (stereo not drawn)	92
CC(C)c1ccc(NC(=O)c2ccc(C(=O)O)nc2)cc1C(C)C	199 to 200
COC(=O)c1cc(F)c(OC)nc1Nc1ccc(F)cc1F	160 to 161
CCOc1csc(C2OC(=O)NC2=O)c1 (stereo not drawn)	144 to 146
COc1ccc(S(=O)(=O)c2c(C(C)C)cn3cccc(C)c23)cc1	103
ClCCCCc1nnnn1C1CCCCC1	50 to 51
O=C1COc2cc(S(=O)(=O)c3ccccc3)ccc2N1CC1=NCCN1	114 to 116
Cc1c(C)c2cc(CCN3CCN(c4n[nH]c5ccccc45)CC3)ccc2[nH]c1=O	266 to 268
c1ccc(Sc2ccc(Sc3ccccc3)s2)cc1	47 to 48
CCc1cccc2c(/C=C(/C)C(=O)O)cc(OC)c(O)c12	127 to 128
CCCCCCCCCC(=O)COS(=O)(=O)c1ccc(Cl)cc1	51 to 51.5
C=CCn1c(=O)n(-c2cccc(C)n2)c2ncccc21	111 to 112
CC(CC1CCNCC1)c1c[nH]c2ccccc12 (stereo not drawn)	125
CC(C)Oc1ccc(C(=O)[NH+]([O-])c2c(Cl)cncc2Cl)c2c1oc1ccccc12 (stereo not drawn)	247 to 248

SMILES	melting point [°C]
CC(SN1C(=O)CCC1=O)c1ccccc1 (stereo not drawn)	121 to 125
Nc1ccc(-c2cnc3c(c2)N(Cc2c(F)ccc(F)c2Cl)CCN3)cn1	> 200
CCCN(CCC)Cc1noc(-c2ncn3c2[C@@H]2CCCN2C(=O)c2c(Cl)cccc2-3)n1	155 to 158
OC1(c2ccc3c(c2)OCO3)CCN(Cc2ccccc2)CC1	144
CC(Oc1ccc(-c2ccc(S(N)(=O)=O)c(F)c2)cc1)C(O)CCc1cccnc1 (stereo not drawn)	178 to 180
CNC(=O)c1cc(-c2cnn(C)c2)cc(F)c1Nc1nc(Cl)ncc1Cl	220 to 221
O=C(O)CN1C(=O)C(NC(=O)[C@@H](S)Cc2ccccc2)CCC2CC=CC=C21 (stereo partly drawn)	107 to 111
CC(=O)C1C(=O)N(C(=O)Nc2ccccc2)c2ccccc21 (stereo not drawn)	171 to 173
CCOC(=O)C=Cc1ccccc1NC(=O)c1ccc(OCCCCc2ccccc2)cc1	129 to 131
O=C(C(=Cc1cc(O)c(O)c([N+](=O)[O-])c1)C(=O)C1CC1)C1CC1	159 to 162
O=C(O)[C@H](CCc1ccccc1)NS(=O)(=O)c1ccc2c(c1)Cc1ccccc1-2	128 to 131
C[C@]1(N2C(=O)c3cccc(OCc4ccc(CN5CCOCC5)cc4)c3C2=O)CCC(=O)NC1=O	178 to 180
N#Cc1ncccc1CCc1cccc(Cl)c1	72 to 73
Cc1ccnc(Nc2nc(-c3cc(-c4ccc(Cl)cc4)no3)cs2)c1	209 to 211
CCN(CC)c1ccc(N=c2scc(-c3ccc(Cl)c(S(=O)(=O)N(C)C)c3)n2C)cc1	184 to 185
O=c1oc(=O)n(-c2ccccc2)c2ncccc12	196 to 198
N#Cc1ccc(Cn2cncc2CCOc2ccc3c(c2CCc2ccccc2)CCCC3=O)cc1	179 to 180
O=C(CC1CCCCC1=O)c1ccc(-c2ccccc2)cc1 (stereo not drawn)	108 to 112
CC(=O)OC1C(N(C)S(C)(=O)=O)c2cc(OCc3ccccc3)ccc2OC1(C)C (stereo not drawn)	124 to 125
CC(C)Cn1c(=O)n(C)c(=O)c2cc(Cn3cnc4ccccc43)sc21	198 to 199
NC(=O)c1sc2nccc(N3CCC(c4ccccc4)CC3)c2c1N	226 to 233
CSc1nn2c(Cl)cc(CN3CCOCC3)nc2c1S(=O)(=O)c1ccccc1	174 to 176
COc1cc(F)ccc1CCN1c2nc(-c3ccncn3)cc(=O)n2CCC1(C)C	196 to 198

SMILES	melting point [°C]
CCCCn1c(=O)c2cc(C(=O)O)cn2c2cc(Cl)ccc21	275 to 276
CC1CC2C3CC(Cl)C4=CC(=O)C=CC4(C)C3C(O)CC2(C)C1C(=O)COC(=O)C(C)(C)C (stereo not drawn)	189
COc1cc(C(=O)NS(=O)(=O)c2ccccc2C)ccc1Cn1cc(/C=C/C(=O)N2CCCC2)c2ccc(/C=C/C(=O)N3CCCC3)cc21	297 to 299
Cc1ccc(C2Sc3ccccc3NC(=O)C2COS(C)(=O)=O)cc1 (stereo not drawn)	207
CCOc1cc(Cn2cc(CCC(=O)O)c(OCC)n2)ccc1OCc1nc(-c2ccccc2)oc1C	105 to 106
CN(C)S(=O)(=O)c1ccc(Oc2ccc(S(=O)(=O)c3ccccc3)cc2)cc1	99 to 100
O=C1c2cccc(Oc3ccc(Cl)cc3)c2C(=O)N1Cc1cccnc1	193 to 194
Cc1ccc2c(c1)N=C(N1CCN(C)CC1)c1cccc3ccn-2c13	202 to 204
C=CCC(CC=C)(CC=C)c1ccc(-c2nc3cc(C#N)c(C#N)cc3n2CCC)cc1	132 to 134
NC(=O)c1nccn1C1Cc2cc(F)ccc2C1=O (stereo not drawn)	221
NC(CO)(CO)CCCCCCCCCCCCCc1ccccc1	61 to 64
CNC(=O)CCCC1CCN(Cc2cnc3c(C)c(NC(=O)c4ccc(-c5ccc(F)cc5)cc4)ccc3c2)CC1	210 to 212
O=C(O)CC[C@H]1O[C@@H](c2ccccc2)c2ccccc2N(Cc2ccccc2)C1=O (relative stereo)	112 to 114
Cc1ccc2[nH]c3ccc(C)cc3c2c1	218 to 221
Fc1ccc(NC(=S)Nc2nc3ccc(OC(F)(F)F)cc3s2)cc1	207
N#Cc1c(F)nc2ccc([N+](=O)[O-])cc2c1F	128 to 129
CCc1nc2c(N)nc3cc(/C=C/C(=O)N4CCOCC4)ccc3c2n1CC1CCOCC1	> 260
C#CC1(O)C(C)CC2C3CCC4=CC(=O)CCC4(C)C3=CCC21C (stereo not drawn)	213 to 218
O=C1CCC(N2C(=O)c3cccc(CNC(=O)Nc4ccc(Cl)c(Cl)c4)c3C2=O)C(=O)N1 (stereo not drawn)	241 to 243
CCN(CC)CC=CC(=O)Nc1cc2c(Nc3ccc(F)c(Cl)c3)ncnc2cc1OC1CCCC1	105
CC(=O)OC1C(N2CCCCC2)CC2C3CCC4CCC(O)CC4(C)C3CCC21C (stereo not drawn)	239 to 240
CN(C)c1ccc(C2CCCN2S(=O)(=O)c2ccc(Cl)cc2)cc1Cl (racemic)	103
